Results reported in PubChem BioAssay (NCI).
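All cell lines were grown in 96-well plates and treated with compound for 48 hours. At the GI50, growth is halved. At the TGI there is no net growth.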

Experiments:
Assay in all cases: NCI anticancer screen, dose series, 48 h
LOX IMVI melanoma = tested on: LOX IMVI melanoma
TK-10 renal = tested on: TK-10 renal
MOLT-4 leukemia = tested on: MOLT-4 leukemia
COLO 205 colon = tested on: COLO 205 colon
A549 NSCLC = tested on: A549 NSCLC
HCT-15 colon = tested on: HCT-15 colon
OVCAR-3 ovarian = tested on: OVCAR-3 ovarian
MDA-MB-231 breast = tested on: MDA-MB-231 breast
SF-268 CNS = tested on: SF-268 CNS
CAKI-1 renal = tested on: CAKI-1 renal
SNB-19 CNS = tested on: SNB-19 CNS
U251 CNS = tested on: U251 CNS
CCRF-CEM leukemia = tested on: CCRF-CEM leukemia
NCI-H23 lung = tested on: NCI-H23 lung
NCI/ADR-RES ovarian = tested on: NCI/ADR-RES ovarian
SW-620 colon = tested on: SW-620 colon
BT-549 breast = tested on: BT-549 breast
HCC-2998 colon = tested on: HCC-2998 colon
HCT-116 colon = tested on: HCT-116 colon
SNB-75 CNS = tested on: SNB-75 CNS
NCI-H226 lung = tested on: NCI-H226 lung
UACC-62 melanoma = tested on: UACC-62 melanoma
SF-539 CNS = tested on: SF-539 CNS
IGROV1 ovarian = tested on: IGROV1 ovarian
SK-MEL-5 melanoma = tested on: SK-MEL-5 melanoma
OVCAR-5 ovarian = tested on: OVCAR-5 ovarian
M14 melanoma = tested on: M14 melanoma
T-47D breast = tested on: T-47D breast
A498 renal = tested on: A498 renal
MDA-MB-435 = tested on: MDA-MB-435
SR leukemia = tested on: SR leukemia
OVCAR-4 ovarian = tested on: OVCAR-4 ovarian
RPMI-8226 leukemia = tested on: RPMI-8226 leukemia
MALME-3M melanoma = tested on: MALME-3M melanoma
KM12 colon = tested on: KM12 colon
DU-145 prostate = tested on: DU-145 prostate
ACHN renal = tested on: ACHN renal
PC-3 prostate = tested on: PC-3 prostate
SF-295 CNS = tested on: SF-295 CNS
K-562 leukemia = tested on: K-562 leukemia
UACC-257 melanoma = tested on: UACC-257 melanoma
SK-MEL-2 melanoma = tested on: SK-MEL-2 melanoma
EKVX NSCLC = tested on: EKVX NSCLC
HOP-92 NSCLC = tested on: HOP-92 NSCLC
HT29 colon = tested on: HT29 colon
HOP-62 NSCLC = tested on: HOP-62 NSCLC
UO-31 renal = tested on: UO-31 renal
MCF7 breast = tested on: MCF7 breast
HL-60(TB) leukemia = tested on: HL-60(TB) leukemia
SK-OV-3 ovarian = tested on: SK-OV-3 ovarian
OVCAR-8 ovarian = tested on: OVCAR-8 ovarian
SN12C renal = tested on: SN12C renal
HS 578T breast = tested on: HS 578T breast
NCI-H522 lung = tested on: NCI-H522 lung
RXF 393 renal = tested on: RXF 393 renal
NCI-H460 lung = tested on: NCI-H460 lung
786-0 renal = tested on: 786-0 renal
SK-MEL-28 melanoma = tested on: SK-MEL-28 melanoma

Question: Which results are given for `COc1ccc(C(O)c2cc3c(N)c(C(=O)Nc4ccc(Br)cc4)sc3nc2C)cc1` (stereo unspecified)?
Answer: GI50 (LOX IMVI melanoma): 2.75 µM; TGI (LOX IMVI melanoma): 11.6 µM; GI50 (TK-10 renal): 8.18 µM; TGI (TK-10 renal): 34.3 µM; GI50 (MOLT-4 leukemia): 3.27 µM; TGI (MOLT-4 leukemia): > 100 µM; GI50 (COLO 205 colon): 3.74 µM; TGI (COLO 205 colon): 27 µM; GI50 (A549 NSCLC): 2.64 µM; TGI (A549 NSCLC): 8.01 µM; GI50 (HCT-15 colon): 1.57 µM; TGI (HCT-15 colon): 13.4 µM; GI50 (OVCAR-3 ovarian): 2.19 µM; TGI (OVCAR-3 ovarian): 4.64 µM; GI50 (MDA-MB-231 breast): 3.18 µM; TGI (MDA-MB-231 breast): 16.9 µM; GI50 (SF-268 CNS): 3.74 µM; TGI (SF-268 CNS): 18.5 µM; GI50 (CAKI-1 renal): 3.5 µM; TGI (CAKI-1 renal): 14.2 µM; GI50 (SNB-19 CNS): 3.7 µM; TGI (SNB-19 CNS): 60.3 µM; GI50 (U251 CNS): 2.5 µM; TGI (U251 CNS): 11.2 µM; GI50 (CCRF-CEM leukemia): 2.78 µM; TGI (CCRF-CEM leukemia): > 100 µM; GI50 (NCI-H23 lung): 6.11 µM; TGI (NCI-H23 lung): 82.2 µM; GI50 (NCI/ADR-RES ovarian): 3.38 µM; TGI (NCI/ADR-RES ovarian): 19 µM; GI50 (SW-620 colon): 3.37 µM; TGI (SW-620 colon): 25.9 µM; GI50 (BT-549 breast): 3.02 µM; TGI (BT-549 breast): 18.6 µM; GI50 (HCC-2998 colon): 2.68 µM; TGI (HCC-2998 colon): 10.4 µM; GI50 (HCT-116 colon): 2.4 µM; TGI (HCT-116 colon): 11.3 µM; GI50 (SNB-75 CNS): 2.18 µM; TGI (SNB-75 CNS): 6.22 µM; GI50 (NCI-H226 lung): 2.58 µM; TGI (NCI-H226 lung): 9.16 µM; GI50 (UACC-62 melanoma): 2.49 µM; TGI (UACC-62 melanoma): 29.1 µM; GI50 (SF-539 CNS): 2.08 µM; TGI (SF-539 CNS): 4.98 µM; GI50 (IGROV1 ovarian): 3.37 µM; TGI (IGROV1 ovarian): 26 µM; GI50 (SK-MEL-5 melanoma): 3.16 µM; TGI (SK-MEL-5 melanoma): 11.4 µM; GI50 (OVCAR-5 ovarian): 3.58 µM; TGI (OVCAR-5 ovarian): 31.9 µM; GI50 (M14 melanoma): 2.35 µM; TGI (M14 melanoma): 20 µM; GI50 (T-47D breast): 3.14 µM; TGI (T-47D breast): 39.7 µM; GI50 (A498 renal): 3.54 µM; TGI (A498 renal): 19.8 µM; GI50 (MDA-MB-435): 0.492 µM; TGI (MDA-MB-435): 2.76 µM; GI50 (SR leukemia): 0.594 µM; TGI (SR leukemia): > 100 µM; GI50 (OVCAR-4 ovarian): 2.01 µM; TGI (OVCAR-4 ovarian): 6.57 µM; GI50 (RPMI-8226 leukemia): 2.32 µM; TGI (RPMI-8226 leukemia): 19.7 µM; GI50 (MALME-3M melanoma): 2.43 µM; TGI (MALME-3M melanoma): 13 µM; GI50 (KM12 colon): 2.45 µM; TGI (KM12 colon): 11.1 µM; GI50 (DU-145 prostate): 2.52 µM; TGI (DU-145 prostate): 6.18 µM; GI50 (ACHN renal): 3.93 µM; TGI (ACHN renal): 16.4 µM; GI50 (PC-3 prostate): 3.2 µM; TGI (PC-3 prostate): 25 µM; GI50 (SF-295 CNS): 2.55 µM; TGI (SF-295 CNS): 8.81 µM; GI50 (K-562 leukemia): 1.13 µM; TGI (K-562 leukemia): > 100 µM; GI50 (UACC-257 melanoma): 3.51 µM; TGI (UACC-257 melanoma): 34.6 µM; GI50 (SK-MEL-2 melanoma): 7.69 µM; TGI (SK-MEL-2 melanoma): 47.1 µM; GI50 (EKVX NSCLC): 3.29 µM; TGI (EKVX NSCLC): 35 µM; GI50 (HOP-92 NSCLC): 2.74 µM; TGI (HOP-92 NSCLC): 23 µM; GI50 (HT29 colon): 2.4 µM; TGI (HT29 colon): 6.51 µM; GI50 (HOP-62 NSCLC): 3.02 µM; TGI (HOP-62 NSCLC): 11 µM; GI50 (UO-31 renal): 4.22 µM; TGI (UO-31 renal): 21.3 µM; GI50 (MCF7 breast): 1.63 µM; TGI (MCF7 breast): 15.2 µM; GI50 (HL-60(TB) leukemia): 2.41 µM; TGI (HL-60(TB) leukemia): 13.5 µM; GI50 (SK-OV-3 ovarian): 3.04 µM; TGI (SK-OV-3 ovarian): 12.9 µM; GI50 (OVCAR-8 ovarian): 3.15 µM; TGI (OVCAR-8 ovarian): 12.9 µM; GI50 (SN12C renal): 3.66 µM; TGI (SN12C renal): 17.3 µM; GI50 (HS 578T breast): 2.19 µM; TGI (HS 578T breast): 5.63 µM; GI50 (NCI-H522 lung): 2.62 µM; TGI (NCI-H522 lung): 16 µM; GI50 (RXF 393 renal): 2.51 µM; TGI (RXF 393 renal): 9.19 µM; GI50 (NCI-H460 lung): 2.16 µM; TGI (NCI-H460 lung): 4.66 µM; GI50 (786-0 renal): 7.58 µM; TGI (786-0 renal): 29.3 µM; GI50 (SK-MEL-28 melanoma): 5.16 µM; TGI (SK-MEL-28 melanoma): > 100 µM
